Reference: patent US20200138804A1, “METHODS FOR TREATING CANCER” (X4 Pharmaceuticals, Inc., priority 2017, published 2020)
“Also recorded” adds a separate entry of the source. Read-outs that look alike come from different tables or passages of the source.

Experiments:
[1] = tested on: murine models of melanoma, renal cell carcinoma, and ovarian cancer; details: including decreased metastasis and increased overall survival; cited from earlier work
[2] = subcutaneous injection; cited from earlier work
[3] = tested on: advanced clear-cell renal cell carcinoma; details: nivolumab 3 mg/kg IV every two weeks or everolimus 10 mg orally daily; P<0.001; cited from earlier work
[4] = Phase 1 and 2a trials, oral; cited from earlier work
[5] = in vivo
Method: In certain embodiments, the dosage composition may be provided twice a day in divided dosage, approximately 12 hours apart. In other embodiments, the dosage composition may be provided once daily. […] Dosage for oral administration may be from about 100 mg to about 1200 mg once or twice per day.

[6] = Solubility of X4P-001 as a function of pH; format: physicochemical
[7] = tested on: tumor infiltrating lymphocytes and MDSC in MC38 tumors; assay: Flow cytometry of Day 8 tumor samples, MC38 model (Groups 5-8); format: in vivo, mouse
Source text: On Day 8, tumor samples from Groups 5-8 are obtained and divided into three parts. The first part is process to single cells by flow cytometry; second part is preserved by snap freeze; and the third part is preserved as formalin-fixed, paraffin-embedded (FFPE) blocks for IHC analysis of biomarkers.
Samples subjected to flow cytometry are sorted into the following cell types:

[8] = tested on: intra-tumoral CD8+ activated T-cells and FoxP3+ Tregs; assay: Immunohistochemical analysis of intra-tumor T-cell infiltrates in a melanoma patient before and after X4P-001; format: in vivo, human
Method: Intra-tumoral tissue samples were obtained from a patient with melanoma prior to treatment (Day 1), and after three (3) weeks of treatment with CXCR4 inhibitor […]-001 (200 mg BID, oral) (Week 4). Samples were stained for CD8+, indicative of activated T-cells, and FoxP3+, indicative of immunosuppressive regulator T-cells (Tregs). The tables below indicate the total counts and density per square millimeter (mm^2) of CD8+ activated T-cells and FoxP3+ Tregs, as well as the ratio of CD8+ activated T-cells:FoxP3+ Tregs per mm^2 at day 1 and after 3 weeks of treatment.

In the case of `c1cc(CN2CCCNCCNCCCNCC2)ccc1CN1CCCNCCNCCCNCC1` [Plerixafor, reference compound], the anti-tumor activity [1] is listed as “significant anti-tumor activity” and the half-life [2] is listed as “very short half-life”.

For `CO[C@H]1C[C@@H]2CC[C@@H](C)[C@@](O)(O2)C(=O)C(=O)N2CCCC[C@H]2C(=O)O[C@H]([C@H](C)C[C@@H]2CC[C@@H](OCCO)[C@H](OC)C2)CC(=O)[C@H](C)/C=C(\C)[C@@H](O)[C@@H](OC)C(=O)[C@H](C)C[C@H](C)/C=C/C=C/C=C/1C` [everolimus], the objective response rate [3] is listed as 5%.

For `NCCCCN(Cc1nc2ccccc2[nH]1)[C@H]1CCCc2cccnc21` [X4P-001], the “pharmacodynamic activity: changes in circulating white blood cells (WBCs)” value [4] is given as “dose- and concentration-related changes in circulating white blood cells”, the “volume of distribution (VL)” value [4] is given as “high volume of distribution” and the terminal half-life [5] is given as “approximately 14.5 hrs”. The half-life ([5]; terminal half-life) was 12 to 24 h, the solubility ([6]; aqueous buffer, pH range 3.0 to 8.0 (freely soluble)) was > 100 mg/mL and the Solubility in water ([6]; water) was “only slightly soluble”. The anti-tumor activity [1] was “significant anti-tumor activity”, the “Treg, Percent of CD45^+ Population (Mean ± SEM)” value ([7]; control 0.5 ± 0.08) was 0.49 ± 0.14% and the “CD4^+, Percent of CD45^+ Population (Mean ± SEM)” value ([7]; control 1.21 ± 0.29) was 1.3 ± 0.51%. The “CD8^+, Percent of CD45^+ Population (Mean ± SEM)” value ([7]; control 3.91 ± 0.69) was 6.11 ± 0.66%, the “CD8^+/Treg” value ([7]; control 7.82) was 12.47 and the “MDSC, Percent of CD45^+ Population (Mean ± SEM)” value ([7]; control 28.97 ± 3.6) was 16.2 ± 0.67%. For the same compound, the “effect on CD8^+ T cells” value ([7]; versus control) was “increasing CD8^+ T cells”, the “effect on MDSCs” value ([7]; versus control) was “significant effect on reducing MDSCs” and the “Total FoxP3+/mm^2” value ([8]; Week 4, after 3 weeks of 200 mg BID oral, Day 1 before treatment 24.5868158) was 25.2 /mm^2. For the same compound, the “Total CD8+/mm^2” value ([8]; Week 4, after 3 weeks of 200 mg BID oral, Day 1 before treatment 56.87565442) was 121.4 /mm^2, the “Total FoxP3+” value ([8]; Week 4, after 3 weeks of 200 mg BID oral, Day 1 before treatment 313) was 337 and the “Total CD8+” value ([8]; Week 4, after 3 weeks of 200 mg BID oral, Day 1 before treatment 720) was 1685. For the same compound, the “intra-tumoral CD8+ T-cell counts” value ([8]; Week 4 versus Day 1, 200 mg BID oral, FIG. 3) was “marked increases in CD8+ T-cells; also recorded: marked increase”.

For “nivolumab: fully human IgG4 monoclonal antibody binding the PD-1 receptor”, the objective response rate [3] is listed as 25%.
